Results reported in PubChem BioAssay (NCI).
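Method: 48-hour compound exposure of cells in 96-well plates, five concentrations, linear interpolation of endpoints. GI50 = concentration required for 50% inhibition of growth. At the TGI there is no net growth.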

Columns and labels:
Assay in all cases: NCI anticancer screen, dose series, 48 h
M14 melanoma = tested on: M14 melanoma
SK-OV-3 ovarian = tested on: SK-OV-3 ovarian
HCT-15 colon = tested on: HCT-15 colon
KM12 colon = tested on: KM12 colon
NCI-H522 lung = tested on: NCI-H522 lung
MDA-MB-231 breast = tested on: MDA-MB-231 breast
SF-295 CNS = tested on: SF-295 CNS
SF-268 CNS = tested on: SF-268 CNS
T-47D breast = tested on: T-47D breast
MDA-MB-435 = tested on: MDA-MB-435
MCF7 breast = tested on: MCF7 breast
UO-31 renal = tested on: UO-31 renal
SR leukemia = tested on: SR leukemia
TK-10 renal = tested on: TK-10 renal
UACC-62 melanoma = tested on: UACC-62 melanoma
HL-60(TB) leukemia = tested on: HL-60(TB) leukemia
NCI/ADR-RES ovarian = tested on: NCI/ADR-RES ovarian
IGROV1 ovarian = tested on: IGROV1 ovarian
SK-MEL-28 melanoma = tested on: SK-MEL-28 melanoma
COLO 205 colon = tested on: COLO 205 colon
PC-3 prostate = tested on: PC-3 prostate
HS 578T breast = tested on: HS 578T breast
SN12C renal = tested on: SN12C renal
OVCAR-5 ovarian = tested on: OVCAR-5 ovarian
SF-539 CNS = tested on: SF-539 CNS
NCI-H460 lung = tested on: NCI-H460 lung
NCI-H226 lung = tested on: NCI-H226 lung
SNB-19 CNS = tested on: SNB-19 CNS
BT-549 breast = tested on: BT-549 breast
SNB-75 CNS = tested on: SNB-75 CNS
OVCAR-3 ovarian = tested on: OVCAR-3 ovarian
U251 CNS = tested on: U251 CNS
LOX IMVI melanoma = tested on: LOX IMVI melanoma
OVCAR-8 ovarian = tested on: OVCAR-8 ovarian
RPMI-8226 leukemia = tested on: RPMI-8226 leukemia
RXF 393 renal = tested on: RXF 393 renal
CCRF-CEM leukemia = tested on: CCRF-CEM leukemia
EKVX NSCLC = tested on: EKVX NSCLC
OVCAR-4 ovarian = tested on: OVCAR-4 ovarian
HCT-116 colon = tested on: HCT-116 colon
SK-MEL-2 melanoma = tested on: SK-MEL-2 melanoma
A549 NSCLC = tested on: A549 NSCLC
HOP-92 NSCLC = tested on: HOP-92 NSCLC
SK-MEL-5 melanoma = tested on: SK-MEL-5 melanoma
HT29 colon = tested on: HT29 colon
A498 renal = tested on: A498 renal
786-0 renal = tested on: 786-0 renal
SW-620 colon = tested on: SW-620 colon
K-562 leukemia = tested on: K-562 leukemia
CAKI-1 renal = tested on: CAKI-1 renal
HOP-62 NSCLC = tested on: HOP-62 NSCLC
NCI-H23 lung = tested on: NCI-H23 lung
HCC-2998 colon = tested on: HCC-2998 colon
MOLT-4 leukemia = tested on: MOLT-4 leukemia
DU-145 prostate = tested on: DU-145 prostate
ACHN renal = tested on: ACHN renal
MDA-N = tested on: MDA-N
MALME-3M melanoma = tested on: MALME-3M melanoma
UACC-257 melanoma = tested on: UACC-257 melanoma

## COc1ccc(-c2nnc3n(C)c(=O)c4ccccc4n23)cc1O
M14 melanoma
  GI50: 0.127 µM
  TGI: 25.9 µM
SK-OV-3 ovarian
  GI50: 1.12 µM
  TGI: 32.9 µM
HCT-15 colon
  GI50: 0.153 µM
  TGI: > 100 µM
KM12 colon
  GI50: 0.152 µM
  TGI: > 100 µM
NCI-H522 lung
  GI50: 0.0827 µM
  TGI: 1.98 µM
MDA-MB-231 breast
  GI50: 2.29 µM
  TGI: 31.7 µM
SF-295 CNS
  GI50: 1.05 µM
  TGI: 13 µM
SF-268 CNS
  GI50: 5.29 µM
  TGI: > 100 µM
T-47D breast
  GI50: 2.41 µM
  TGI: > 100 µM
MDA-MB-435
  GI50: 0.065 µM
  TGI: 0.221 µM
MCF7 breast
  GI50: 0.13 µM
  TGI: > 100 µM
UO-31 renal
  GI50: 2.13 µM
  TGI: > 100 µM
SR leukemia
  GI50: 0.1 µM
  TGI: > 100 µM
TK-10 renal
  GI50: 6.8 µM
  TGI: > 100 µM
UACC-62 melanoma
  GI50: 0.441 µM
  TGI: 27.1 µM
HL-60(TB) leukemia
  GI50: 0.13 µM
  TGI: 1.32 µM
NCI/ADR-RES ovarian
  GI50: 0.154 µM
  TGI: 33.9 µM
IGROV1 ovarian
  GI50: 2.69 µM
  TGI: > 86.3 µM
SK-MEL-28 melanoma
  GI50: 12.2 µM
  TGI: > 100 µM
COLO 205 colon
  GI50: 3.36 µM
  TGI: 21.1 µM
PC-3 prostate
  GI50: 0.611 µM
  TGI: > 100 µM
HS 578T breast
  GI50: 0.964 µM
  TGI: 35.9 µM
SN12C renal
  GI50: 1.47 µM
  TGI: > 100 µM
OVCAR-5 ovarian
  GI50: 15.8 µM
  TGI: > 100 µM
SF-539 CNS
  GI50: 0.596 µM
  TGI: 6.68 µM
NCI-H460 lung
  GI50: 0.172 µM
  TGI: > 100 µM
NCI-H226 lung
  GI50: 16.9 µM
  TGI: > 100 µM
SNB-19 CNS
  GI50: 0.862 µM
  TGI: > 64.9 µM
BT-549 breast
  GI50: 2.91 µM
  TGI: > 100 µM
SNB-75 CNS
  GI50: 0.161 µM
  TGI: 27.6 µM
OVCAR-3 ovarian
  GI50: 0.162 µM
  TGI: 12.7 µM
U251 CNS
  GI50: 0.263 µM
  TGI: 20.8 µM
LOX IMVI melanoma
  GI50: 1.25 µM
  TGI: > 100 µM
OVCAR-8 ovarian
  GI50: 1.52 µM
  TGI: > 100 µM
RPMI-8226 leukemia
  GI50: 5.01 µM
  TGI: > 100 µM
RXF 393 renal
  GI50: 0.758 µM
  TGI: 6.21 µM
CCRF-CEM leukemia
  GI50: 1.81 µM
  TGI: > 100 µM
EKVX NSCLC
  GI50: 14.1 µM
  TGI: > 100 µM
OVCAR-4 ovarian
  GI50: 4.32 µM
  TGI: > 100 µM
HCT-116 colon
  GI50: 0.161 µM
  TGI: > 50.3 µM
SK-MEL-2 melanoma
  GI50: 0.14 µM
  TGI: 37.5 µM
A549 NSCLC
  GI50: 2.29 µM
  TGI: > 100 µM
HOP-92 NSCLC
  GI50: 1.31 µM
  TGI: 61.5 µM
SK-MEL-5 melanoma
  GI50: 0.15 µM
  TGI: > 100 µM
HT29 colon
  GI50: 3.94 µM
  TGI: 43.6 µM
A498 renal
  GI50: 6.42 µM
  TGI: 36.6 µM
786-0 renal
  GI50: 2.57 µM
  TGI: 28 µM
SW-620 colon
  GI50: 0.149 µM
  TGI: > 100 µM
K-562 leukemia
  GI50: 0.135 µM
  TGI: > 100 µM
CAKI-1 renal
  GI50: 1.06 µM
  TGI: > 100 µM
HOP-62 NSCLC
  GI50: 0.176 µM
  TGI: 19.8 µM
NCI-H23 lung
  GI50: 3.01 µM
  TGI: > 100 µM
HCC-2998 colon
  GI50: 2.98 µM
  TGI: 97.9 µM
MOLT-4 leukemia
  GI50: 1.17 µM
  TGI: > 100 µM
DU-145 prostate
  GI50: 2.22 µM
  TGI: > 100 µM
ACHN renal
  GI50: 1.15 µM
  TGI: > 100 µM

## ClCc1c(-c2ccccc2)nn(-c2ccccc2)c1CCl
M14 melanoma
  TGI: 35.5 µM
HCT-15 colon
  TGI: 27 µM
KM12 colon
  TGI: 32.7 µM
NCI-H522 lung
  TGI: 0.416 µM
SF-295 CNS
  TGI: 32.8 µM
SF-268 CNS
  TGI: 43.6 µM
T-47D breast
  TGI: 5.96 µM
MDA-MB-435
  TGI: 6.42 µM
MCF7 breast
  TGI: 23.5 µM
UO-31 renal
  TGI: 45 µM
SR leukemia
  TGI: 33.4 µM
TK-10 renal
  TGI: 29.2 µM
UACC-62 melanoma
  TGI: 21.4 µM
HL-60(TB) leukemia
  TGI: 6.13 µM
MDA-N
  TGI: 24.2 µM
NCI/ADR-RES ovarian
  TGI: > 100 µM
IGROV1 ovarian
  TGI: 42.9 µM
SK-MEL-28 melanoma
  TGI: 32.3 µM
COLO 205 colon
  TGI: 25.5 µM
PC-3 prostate
  TGI: 21.4 µM
SN12C renal
  TGI: 42.3 µM
OVCAR-5 ovarian
  TGI: 35 µM
SF-539 CNS
  TGI: 33.1 µM
NCI-H226 lung
  TGI: 72.8 µM
SNB-19 CNS
  TGI: 43 µM
SNB-75 CNS
  TGI: 16.7 µM
OVCAR-3 ovarian
  TGI: 26.3 µM
U251 CNS
  TGI: 27.6 µM
OVCAR-8 ovarian
  TGI: 30.8 µM
RPMI-8226 leukemia
  TGI: 7.86 µM
RXF 393 renal
  TGI: 28.3 µM
OVCAR-4 ovarian
  TGI: 3.83 µM
HCT-116 colon
  TGI: 25.1 µM
MALME-3M melanoma
  TGI: 30.6 µM
SK-MEL-2 melanoma
  TGI: 26.5 µM
A549 NSCLC
  TGI: 37.3 µM
HOP-92 NSCLC
  TGI: 7.69 µM
SK-MEL-5 melanoma
  TGI: 25.2 µM
HT29 colon
  TGI: 31.9 µM
786-0 renal
  TGI: 22 µM
SW-620 colon
  TGI: 5.21 µM
CAKI-1 renal
  TGI: 3.71 µM
NCI-H23 lung
  TGI: 34.7 µM
HCC-2998 colon
  TGI: 26.8 µM
DU-145 prostate
  TGI: 29 µM
UACC-257 melanoma
  TGI: 34.1 µM
